# How the values were obtained:
# Format in all cases: physicochemical
# [1] = Moisture sorption analysis; conditions: for Hygroscopicity: moisture sorption, 0-95% RH cycles
# Procedure: (§1) Moisture sorption analysis of the starting material was performed by equilibrating the sample at 25° C. and 50% RH to simulate ambient lab conditions. Humidity then decreased to 0% RH, increased from 0 to 95% RH, reduced from 95 to 0% RH, increased from 0 to 95 %RH and then decreased from 95 to 50% RH. Each point represents the estimated asymptotic weight for each humidity or weight. […] No hysteresis was observed upon desorption (FIG. 14).
# as §1, with “of Pattern E (from” for “of”, “300 mg scale lot)” for “starting material”, “Humidity was” for “Humidity”, “19).” for “14).”
# Moisture sorption analysis of Pattern C (300 mg lot) was performed by equilibrating the sample at 25° C. and 50% RH to simulate ambient lab conditions. Humidity was then decreased to 0% RH, increased from 0 to 95% RH, reduced from 95 to 0% RH, increased from 0 to 95%RH and then decreased from 95 to 50% RH. Each point represents the estimated asymptotic weight for each humidity or weight. […] This increased the total water to about 6% which is the water content of mono-hydrate. However, upon reducing the relative humidity, the solid lost its water. Therefore this could be a channel hydrate. No hysteresis was observed upon desorption (FIG. 24).
# as §1, with “Pattern B (300 mg lot)” for “the starting material”, “The major weight loss at the beginning” for “No hysteresis”, “due to loss of solvent.” for “observed upon desorption (FIG. 14).”
# as §1, with “Pattern F (from Example 6)” for “the starting material”, “Humidity was” for “Humidity”, “The major weight loss at the beginning is due to loss of solvent.” for “No hysteresis was observed upon desorption (FIG. 14).”
# [2] = 7 day elevated aqueous humidity studies; conditions: for XRPD [Pattern] 7 day: form after 7 days
# Procedure: 7 day elevated aqueous humidity experiments were performed on all Patterns A, B, C, D, E and F at ambient conditions at > 95%RH (Table 17). Approximately 30 mg of each pattern was weighed into a 4 ml glass vial. The uncovered 4 ml vial was inserted into a 20 ml scintillation vial half filled with water and capped. Following 24 hours of equilibration, visual inspection was performed to check for changes in physical appearance, however no change was observed.
# [3] = Short term slurry experiments (form by XRPD); conditions: slurried in most of 17 solvents, min. 3 days
# Procedure: Short term slurry experiments of the starting material, Pattern A, were performed for a minimum of 3 days in 17 different solvent systems having diverse properties at two different temperatures (25 and 50° C.). A 48 position Chemglass reaction block was used for heating and stirring the slurries which were in 2 mL HPLC vials. After the due time, vials were centrifuged and the wet solids were used for X-ray diffraction.
# [4] = Aqueous solubility (HPLC); conditions: water, thermodynamic from solid, ambient conditions, 24 hours of equilibration
# Procedure: Aqueous solubility of Patterns A, B, C, E and F was performed using an Agilent HPLC system. Approximately 10-20 mg of each form was charged to a 2 mL glass vial loaded with a magnetic stir bar and added 2 mL of water. The samples were allowed to stir overnight at ambient conditions. Following 24 hours of equilibration the samples were centrifuged and decanted into HPLC vials. A calibration curve was generated based on Pattern A in MeOH at 0.05, 0.1, 0.5 and 1.0 mg/mL. Following injection of the standard curve, the samples were run as is.
# [5] = Grinding experiments; conditions: for XRPD after grinding: RT; for Stability of crystal form to grinding: light grinding, dry and with IPA or water
# Procedure: Grinding experiments of the starting material were performed by dry grinding and solvent drop grinding in IPA and water utilizing a mortar and pestle (Table 18).
# [6] = Solubility measurement of Pattern A in 17 solvent systems (gravimetric); conditions: for solubility: thermodynamic from solid
# Description: (R)-Trolox was produced from racemic Trolox via methylbenzyl amine double resolution in a manner similar to that described in Example 29 of U.S. Pat. No. 4,026,907. This (R)-Trolox was used to synthesize the (R)-2-hydroxy-2-methyl-4-(2,4,5-trimethyl-3,6-dioxocyclohexa-1,4-dienyl)butanamide starting material. This starting material, designated as Pattern A, was used for the solubility measurement.
# Excess amount of solid was slurried in 17 solvent systems having diverse properties for minimum of 3 days. The slurry was centrifuged and the clear solution was used for gravimetric method. […] Limited solubility was observed from heptane, toluene, MTBE, water and 0.5% Methyl Cellulose in water at ambient and elevated temperatures. Table 9 presents the measured solubility data. A ±10% error is expected.
smiles,measurement,setting,value
"CC1=C(C)C(=O)C(CC[C@@](C)(O)C(N)=O)=C(C)C1=O [Pattern A, (R)-2-hydroxy-2-methyl-4-(2,4,5-trimethyl-3,6-dioxocyclohexa-1,4-dienyl)butanamide]",XRPD following moisture sorption analysis,[1]; after 0-95% RH cycles at 25° C.,"consistent with the starting material, Pattern A"
same,Water adsorbed,"[1]; at 90 %RH, 25° C.",0.1%
same,Hygroscopicity,[1]; 25° C.,non-hygroscopic
same,Hygroscopicity,"[1]; 25° C., listed as Form I",non-hygroscopic
same,Hysteresis upon desorption,"[1]; moisture sorption-desorption, 25° C.",No hysteresis
same,Visual Observations 1 day,[2]; > 95 %RH at Ambient,Yellow solids
same,Visual Observations 7 day,[2]; > 95 %RH at Ambient,Yellow Solids
same,XRPD [Pattern] 7 day,[2]; > 95 %RH at Ambient,no change in form
same,XRPD [Pattern] 7 day,"[2]; > 95 %RH at Ambient, listed as A",Crystalline [Pattern A]
same,Stability to elevated humidity,"[2]; Example 8, summary statement",stability to elevated humidity
same,Stability of form in short term slurry,[3],relatively stable
same,solubility at 24 h,[4],1.74 mg/mL
same,XRPD after grinding,"[5]; dry grinding, mortar and pestle",Pattern A
same,Stability of crystal form to grinding,[5],no change in the crystal form
same,Stability of crystal form to grinding,[5]; listed as Form I,stability to grinding
same,XRPD after grinding,"[5]; solvent drop grinding, H2O (2 drops)",Pattern A
same,XRPD after grinding,"[5]; solvent drop grinding, IPA (2 drops)",Pattern A
same,Solubility in a simple detergent,[6]; 0.5% MC/2% Tween 80,increased solubility
same,solubility,"[6]; 0.5% methyl cellulose in water, 25 °C, aqueous with cosolvent or surfactant or cyclodextrin, 0.5% MC in Water, part of the concentration relates to solvent constituents",7 mg/mL
same,solubility,"[6]; 0.5% methyl cellulose in water, 50 °C, aqueous with cosolvent or surfactant or cyclodextrin, 0.5% MC in Water, part of the concentration relates to solvent constituents",4 mg/mL
same,solubility,"[6]; 0.5% methyl cellulose/2% Tween 80, 25 °C, aqueous with cosolvent or surfactant or cyclodextrin, 0.5% MC/2% Tween 80, 25° C., part of the concentration relates to solvent constituents",26 mg/mL
same,solubility,"[6]; 0.5% methyl cellulose/2% Tween 80, 50 °C, aqueous with cosolvent or surfactant or cyclodextrin, 0.5% MC/2% Tween 80, 50° C., part of the concentration relates to solvent constituents",30 mg/mL
same,solubility,"[6]; 2-MeTHF, 25 °C, organic solvent or mixture, gravimetric",35 mg/mL
same,solubility,"[6]; 2-MeTHF, 50 °C, organic solvent or mixture, gravimetric",59 mg/mL
same,solubility,"[6]; 4% DMA in PBS, 25 °C, aqueous buffer, part of the concentration relates to solvent constituents",10 mg/mL
same,solubility,"[6]; 4% DMA in PBS, 50 °C, aqueous buffer, part of the concentration relates to solvent constituents",13 mg/mL
same,solubility,"[6]; EtOAc, 25 °C, organic solvent or mixture, gravimetric",22 mg/mL
same,solubility,"[6]; EtOAc, 50 °C, organic solvent or mixture, gravimetric",38 mg/mL
same,solubility,"[6]; EtOH, 25 °C, organic solvent or mixture, gravimetric",40 mg/mL
same,solubility,"[6]; EtOH, 50 °C, organic solvent or mixture, gravimetric",> 121 mg/mL
same,Solubility in polar and non-polar solvents,"[6]; Example 2, summary statement",soluble in a variety of polar and non-polar solvents
same,solubility,"[6]; IPA, 25 °C, organic solvent or mixture, gravimetric",20 mg/mL
same,solubility,"[6]; IPA, 50 °C, organic solvent or mixture, gravimetric",53 mg/mL
same,solubility,"[6]; IPAc, 25 °C, organic solvent or mixture, gravimetric",13 mg/mL
same,solubility,"[6]; IPAc, 50 °C, organic solvent or mixture, gravimetric",16 mg/mL
same,solubility,"[6]; MTBE, 25 °C, organic solvent or mixture, gravimetric",10 mg/mL
same,solubility,"[6]; MTBE, 50 °C, organic solvent or mixture, gravimetric",16 mg/mL
same,solubility,"[6]; MeCN, 25 °C, organic solvent or mixture, gravimetric",20 mg/mL
same,solubility,"[6]; MeCN, 50 °C, organic solvent or mixture, gravimetric",38 mg/mL
same,solubility,"[6]; MeOH, 25 °C, organic solvent or mixture, gravimetric",> 101 mg/mL
same,solubility,"[6]; MeOH, 50 °C, organic solvent or mixture, gravimetric",> 112 mg/mL
same,solubility,"[6]; THF, 25 °C, organic solvent or mixture, gravimetric",28 mg/mL
same,solubility,"[6]; THF, 50 °C, organic solvent or mixture, gravimetric",33 mg/mL
same,solubility,"[6]; acetone, 25 °C, organic solvent or mixture, gravimetric",39 mg/mL
same,solubility,"[6]; acetone, 50 °C, organic solvent or mixture, gravimetric",90 mg/mL
same,solubility,"[6]; heptane, 25 °C, organic solvent or mixture, slurry min. 3 days, gravimetric",6 mg/mL
same,solubility,"[6]; heptane, 50 °C, organic solvent or mixture, slurry min. 3 days, gravimetric",6 mg/mL
same,solubility,"[6]; toluene, 25 °C, organic solvent or mixture, gravimetric",3 mg/mL
same,solubility,"[6]; toluene, 50 °C, organic solvent or mixture, gravimetric",< 18 mg/mL
same,solubility,"[6]; water, 25 °C, ^1Water (second water line), gravimetric",2 mg/mL
same,solubility,"[6]; water, 25 °C, gravimetric",3 mg/mL
same,solubility,"[6]; water, 50 °C, ^1Water (second water line), gravimetric",6 mg/mL
same,solubility,"[6]; water, 50 °C, gravimetric",3 mg/mL

# From patent publication US20230364029A1, “POLYMORPHIC FORMS OF (R)-2-HYDROXY-2-METHYL-4-(2,4,5-TRIMETHYL-3,6-DIOXOCYCLOHEXA-1,4-DIENYL)BUTANAMIDE” (PTC THERAPEUTICS, INC., priority 2014, published 2023)
